Reference: PMC7763917, “A Facile Semisynthesis and Evaluation of Garcinoic Acid and Its Analogs for the Inhibition of Human DNA Polymerase β” (Molecules, 2020)

Biological target: T1, human DNA polymerase β (hpol β) (Homo sapiens, UniProt P06746)
Assay: fluorescence-based polymerase inhibition assay
Type: biochemical
Conditions: 1 nM hpol β, 50 nM DNA, 100 μM dTTP, 25 °C; compounds tested from 1 μM to 120 μM; mean of triplicate; read-out: IC50 in inhibiting hpol β
Protocol: A fluorescence-based assay, as described previously, was used to determine the IC50 values for garcinoic acid and its homologs for human DNA polymerase β. DNA substrates were prepared as we reported previously. Briefly, a reporter strand conjugated with 5-carboxytetramethylrhodamine (TAMRA) and an unlabeled primer were annealed to a Black Hole Quencher (BHQ)-labelled template strand in a solution containing 10 mM Tris (pH 8.0) and 50 mM NaCl. The oligonucleotides were annealed in a 1:1.5:1.5 ratio for reporter, primer and template strand, respectively. The oligonucleotides were mixed and incubated for 3 min at 95 °C before cooling to room temperature.
The polymerase reaction was performed with 1 nM hpol β, 50 nM DNA, 100 μM dTTP and 2 mM MgCl2 in 50 mM Tris (pH 8.0) buffer containing 40 mM NaCl, 2 mM DTT and 0.01% (w/v) Tween 20. The reaction mix containing enzyme and dTTP were incubated for 5 min with the compound or DMSO in a 96-well plate before adding DNA to initiate the reaction. Polymerase reactions were performed at room temperature (25 °C). The plate was read continuously for one hour with a Synergy H4 plate reader (BioTek, λex = 525 nm, λem = 598 nm) (Winooski, VT, USA) after initiation of the reaction. The percent inhibition was calculated by dividing the rate of product formation at each compound concentration by the rate of product formation in DMSO control. The data was fit to a four-parameter logistic model with variable slope in Prism (San Diego, CA, USA) to calculate the IC50 values. The reactions were performed in triplicate and the mean IC50 value is reported with 95% confidence intervals.

Question: Which IC50 does the source give for `C/C(=C\CC/C(C)=C/CC[C@]1(C)CCc2cc(O)cc(C)c2O1)CC/C=C(\C)C(=O)O` [Compound 1, 13-[(R)-6-Hydroxy-2,8-dimethylchroman-2-yl]-2,6,10-trimethyltrideca-2E,6E,10E-trienoic acid] here?
Answer: Its IC50 is 11 µM.

Question: For `C/C(=C\CC[C@]1(C)CCc2cc(O)cc(C)c2O1)C(=O)O` [Compound 9a, 5-[(R)-6-Hydroxy-2,8-dimethylchroman-2-yl]-2-methylpent-2E-enoic acid], which IC50 is on record?
Answer: Its IC50 is over 120 µM.

Question: For `Cc1cc(O)cc2c1O[C@](C)(CC/C=C/C(=O)O)CC2` [Compound 9b, 5-[(R)-6-Hydroxy-2,8-dimethylchroman-2-yl]pent-2E-enoic acid], which IC50 is on record?
Answer: Its IC50 is over 120 µM.

Question: For `C/C(=C\CC[C@]1(C)CCc2cc(O)cc(C)c2O1)CC/C=C(\C)C(=O)O` [Compound 10a, 9-[(R)-6-Hydroxy-2,8-dimethylchroman-2-yl]-2,6-dimethylnona-2E,6E-dienoic acid], which IC50 is on record?
Answer: Its IC50 is 52 µM.

Question: With `C/C(=C\CC[C@]1(C)CCc2cc(O)cc(C)c2O1)CC/C=C/C(=O)O` [Compound 10b, 9-[(R)-6-Hydroxy-2,8-dimethylchroman-2-yl]-6-methylnona-2E,6E-dienoic acid] as the compound, how does the IC50 read?
Answer: Its IC50 is 49 µM.

Question: Which IC50 does the source give for `C/C(=C\CC/C(C)=C/CC[C@]1(C)CCc2cc(O)cc(C)c2O1)CC/C=C/C(=O)O` [Compound 11, 13-[(R)-6-Hydroxy-2,8-dimethylchroman-2-yl]-6,10-dimethyltrideca-2E,6E,10E-trienoic acid] here?
Answer: Its IC50 is 23 µM.

Question: Which IC50 does the source give for `COC(=O)/C(C)=C/CC[C@]1(C)CCc2cc(O)cc(C)c2O1` [Compound 12a, Methyl 5-[(R)-6-hydroxy-2,8-dimethylchroman-2-yl]-2-methylpent-2E-enoate] here?
Answer: The IC50 was over 120 µM.

Question: With `COC(=O)/C=C/CC[C@]1(C)CCc2cc(O)cc(C)c2O1` [Compound 12b, Methyl 5-[(R)-6-hydroxy-2,8-dimethylchroman-2-yl]pent-2E-enoate] as the compound, how does the IC50 read?
Answer: The IC50 was over 120 µM.

Question: With `COC(=O)/C(C)=C/CC/C(C)=C/CC[C@]1(C)CCc2cc(O)cc(C)c2O1` [Compound 13a, Methyl 9-[(R)-6-hydroxy-2,8-dimethylchroman-2-yl]-2,6-dimethylnona-2E,6E-dienoate] as the compound, how does the IC50 read?
Answer: Its IC50 is over 120 µM.

Question: With `COC(=O)/C=C/CC/C(C)=C/CC[C@]1(C)CCc2cc(O)cc(C)c2O1` [Compound 13b, Methyl 9-[(R)-6-hydroxy-2,8-dimethylchroman-2-yl]-6-methylnona-2E,6E-dienoate] as the compound, how does the IC50 read?
Answer: Its IC50 is over 120 µM.

Question: For `COC(=O)/C(C)=C/CC/C(C)=C/CC/C(C)=C/CC[C@]1(C)CCc2cc(O)cc(C)c2O1` [Compound 14a, Methyl 13-[(R)-6-hydroxy-2,8-dimethylchroman-2-yl]-2,6,10-trimethyltrideca-2E,6E,10E-trienoate], which IC50 is on record?
Answer: Its IC50 is over 120 µM.

Question: With `COC(=O)/C=C/CC/C(C)=C/CC/C(C)=C/CC[C@]1(C)CCc2cc(O)cc(C)c2O1` [Compound 14b, Methyl 13-[(R)-6-hydroxy-2,8-dimethylchroman-2-yl]-6,10-dimethyltrideca-2E,6E,10E-trienoate] as the compound, how does the IC50 read?
Answer: Its IC50 is over 120 µM.

Question: For `COC(=O)/C(C)=C/CC/C(C)=C/CC/C(C)=C/CC[C@]1(C)CCc2cc(OC)cc(C)c2O1` [Compound 15, Methyl 13-[(R)-6-methoxy-2,8-dimethylchroman-2-yl]-2,6,10-trimethyltrideca-2E,6E,10E-trienoate], which IC50 is on record?
Answer: Its IC50 is over 120 µM.

Question: Which IC50 does the source give for `COc1cc(C)c2c(c1)CC[C@@](C)(CC/C=C(\C)CC/C=C(\C)CC/C=C(\C)C(=O)O)O2` [Compound 16, 13-[(R)-6-methoxy-2,8-dimethylchroman-2-yl]-2,6,10-trimethyltrideca-2E,6E,10E-trienoic Acid] here?
Answer: Its IC50 is 31 µM.

Biological target: T1, human DNA polymerase β (hpol β)
Assay: not given
Design: method as in PMID 16146411
Conditions: garcinoic acid analog with the dihydropyran ring opened; not in Table 2, no reference printed at the sentence; cited from earlier work

Question: With `C/C(=C\CC/C(C)=C/CC[C@@](C)(O)CCc1cc(O)cc(C)c1O)CC/C=C(\C)C(=O)O` [chrysochlamic acid] as the compound, how does the “hpol β inhibition activity (in words)” value read?
Answer: The value was “lack of hpol β inhibition activity”.
